In one data set the test system is MDCK cells. The experiment in a line: Toxicity observed in the cell scattering screening. The data set is classed as cell-based. The method, then:
(§1) For scattering assays, MDCK cells were pre-incubated with compounds for 2 hours at 0.1-100 μM concentrations at 37° C. in a humidified atmosphere of 5% CO2, followed by 24 hr stimulation with 20 ng/ml HGF (R&D Systems), as previously described (Patane et al., Biochem Biophys Res Commun 375, 184-189, 2008). The cells were further incubated at 37° C. in an atmosphere of 5% CO2 for 24-48 hours, washed with phosphate-buffered saline (PBS; Gibco BRL), and fixed in PFA (Sigma). The quantification of scattering response was performed by counting the number of cells with scattered morphology in 30 independent colonies. The […] corresponds to the concentration of compounds leading to a 50% inhibition of Met-triggered cell scattering. Active compounds were assayed to impair scattering response also on human breast MCF10A cells following the same procedure. For survival assays, GTL-16, HepG2 and U-87 cells were cultured in serum-free media for 24 hours prior to compound addition for 48 hours. Viability was assessed with the Cell Titer Glo Luminescent Assay (Promega). For in vitro tumorigenesis, soft agar growth assays were preformed using GTL-16, HepG2, and U-87 cells, as previously described (Patane et al., Cancer Res 66, 4750-4757, 2006).
Compounds of examples 1 (XIII), 2 (XIV), 4 (XVI), 5 (XVII), and 6 (XVIII) in particular elicit inhibitory activity on Met-triggered cell scattering. […] The SU11274 (Met inhibitor; Sugen) was used as reference compound. […] These findings were further supported by analysing the inhibitory activity of compounds on breast cells. […] Altogether, these studies identify a new class of compounds of general formula (I), which are able to interfere with Met-triggered cell scattering.

Data set [1] deals with Met-triggered cell scattering, MDCK cells. Nature of the data set: HGF-induced MDCK cell scattering assay. The data set is classed as cell-based. The note with it: Canis lupus familiaris. How it is done:
(§2) MDCK cells were grown in Dulbecco's modified Eagle's medium (DMEM) (Gibco BRL) containing 4 mM L-glutamine and supplemented with 2% (v/v) foetal bovine serum (Gibco BRL), 100 U/mL penicillin, and 100 μg/mL streptomycin. Cells were plated at a density of 1000 cells per well in 24-well microplates and allowed to settle overnight at 37° C. in a humidified atmosphere of 5% CO2 prior to treatments. MCF10A human breast cells, MDA-MB231 human breast cancer cells, GTL-16 human gastric carcinoma cells, HepG2 human hepatocellular carcinoma cells, U-87 human glioblastoma-astrocytoma cells and LLC Lewis lung carcinoma cells were grown in RPMI medium (Gibco BRL) containing 4 mM L-glutamine and supplemented with 2% (v/v) foetal bovine serum (Gibco BRL), 100 U/mL penicillin, and 100 μg/mL streptomycin and kept at 37° C. in a humidified atmosphere of 5% CO2.
as §1
Compounds were first submitted to a biological screening of cell motility, namely scattering response. MDCK epithelial cells acquire a “scattered phenotype” following stimulation by the Met ligand, HGF (Chan et al., J Biomol Screen. 13, 847-854, 2008; Corso et al., Trends Mol Med 11, 284-292, 2005; Patane et al., Biochem Biophys Res Commun 375, 184-189, 2008), allowing direct evaluation of compounds on Met functions. The Met inhibitor […] was used as control in all assays (Schiering et al., Proc Natl Acad Sci USA 100, 12654-12659, 2003).

Data set [2] has as its system GTL-16 cells. The experiment in a line: Soft agar anchorage-independent growth (in vitro tumorigenesis), GTL-16. It is filed as cell-based, human. As to conditions: Homo sapiens; soft agar growth, GTL-16. How it is done:
as §2
as §1, with “2006). […]” for “2006).”

For data set [3], the system named is GTL-16 cells. The note with it: Zou et al., 2007; cited from earlier work.
For data set [4], the system named is Met phosphorylation, HepG2 cells. The experiment in a line: Met phosphorylation upon HGF stimulation in HepG2 cells. It is filed as cell-based, human. How it is done:
After starvation, cells were pretreated with inhibitors, then stimulated with HGF, and total extracts were analyzed as described (Maina et al., Mol Cell 7, 1293-1306, 2001). Antibodies used were anti-tubulin (Sigma), anti-phospho Y1234-1235-Met, anti-Akt, anti-phospho-Akt, anti-phospho-Gab1, anti phosphor-ErbBs, anti-phospho-PDGFR, anti-PDGFRs, anti-ERKs (Cell Signaling), anti-ErbBs, anti-Met (Santa Cruz).
Activation of Met by HGF can be biochemically evaluated by following its phosphorylation levels and activation of downstream targets. We started to biochemically characterise the inhibitory properties of identified compounds by following Met phosphorylation and its downstream targets in HepG2 cells. […] These findings were further supported using other cell lines, such as MDA-MB231 human breast cancer cells (FIG. 2).

A further data set has as its system HepG2 cells. The experiment in a line: Soft agar anchorage-independent growth (in vitro tumorigenesis), HepG2. The data set is classed as cell-based. The note with it: Homo sapiens, read-out: HepG2 IC 50. How it is done: as §2
For scattering assays, MDCK cells were pre-incubated with compounds for 2 hours at 0.1-100 μM concentrations at 37° C. in a humidified atmosphere of 5% CO2, followed by 24 hr stimulation with 20 ng/ml HGF (R&D Systems), as previously described (Patane et al., Biochem Biophys Res Commun 375, 184-189, 2008). […] The quantification of scattering response was performed by counting the number of cells with scattered morphology in 30 independent colonies. […] Viability was assessed with the Cell Titer Glo Luminescent Assay (Promega). […]

Setting [5] is: MDCK cells, 20 ng/ml HGF, read-out: IC50 scattering inhibition.

Read-outs that look alike come from different tables or passages of the source.

Regarding `O=C(Cc1cc(F)cc(F)c1)N[C@@H](Cc1ccccc1)C(=O)Nc1ccc(-c2cn3c(n2)sc2ccccc23)cc1` [Example 6], the Toxicity with MDCK cells (Table 1, scattering screening) was greater than 100 µM.
For the molecule `O=C(Cc1cc(C(F)(F)F)cc(C(F)(F)F)c1)N[C@H](Cc1ccccc1)C(=O)Nc1ccc(-c2cn3c(n2)sc2ccccc23)cc1` [Example 5, (R)-2-(3,5-bis(trifluoromethyl)phenylacetamido)-3-phenyl-N-[4-(imidazo[2,1-b]benzothiazol-2-yl)phenyl]propanamide], in the data set with MDCK cells (Table 1, scattering screening), the Toxicity is greater than 50 µM. Further, the IC50 in data set [1] (setting [5]) was 206 nM; in the data set with GTL-16 cells [2] it was 1190 nM.
The molecule `Cc1cc(C)cc(CC(=O)N[C@H](Cc2ccccc2)C(=O)Nc2ccc(-c3cn4c(n3)sc3ccccc34)cc2)c1` [Example 2, (R)-2-(3,5-dimethylphenylacetamido)-3-phenyl-N-[4-(imidazo[2,1-b]benzothiazol-2-yl)phenyl]propanamide] had a Toxicity in the data set with MDCK cells (Table 1, scattering screening) greater than 100 µM.
For the molecule `Cc1[nH]c(/C=C2\C(=O)Nc3ccc(S(=O)(=O)N(C)c4cccc(Cl)c4)cc32)c(C)c1C(=O)N1CCN(C)CC1` [SU11274, (3Z)—N-(3-Chlorophenyl)-3-({3,5-dimethyl-4-[(4-methylpiperazin-1-yl)carbonyl]-1H-pyrrol-2-yl}methylene)-N-methyl-2-oxo-2,3-dihydro-1H-indole-5-sulfonamide, reference compound], the “Soft-agar growth of GTL-16 cells” value in the data set on GTL-16 cells [3] is recorded as “impaired”. Further, the IC50 in data set [1] (setting [5]) stood at 251 nM.
In the case of `C[C@@H](NC(=O)Cc1cc(F)cc(F)c1)C(=O)Nc1ccc(-c2cn3c4c(sc3n2)CCCC4)cc1` [reference compound], the Toxicity result in the data set with MDCK cells (comparative compound, toxic at this concentration) is on record as “at 100 μM”. Also, the IC50 in data set [1] (MDCK, comparative compound, same test, read-out: Scattering inhibition) was 10000 nM.
For `Cc1cc(C)cc(CC(=O)N[C@@H](Cc2ccccc2)C(=O)Nc2ccc(-c3cn4c(n3)sc3ccccc34)cc2)c1` [Example 1, (S)-2-(3,5-dimethylphenylacetamido)-3-phenyl-N-[4-(imidazo[2,1-b]benzothiazol-2-yl)phenyl]propanamide], the Met phosphorylation entry in data set [4] is reported as “significantly reduced”. The same molecule had a Toxicity with MDCK cells (Table 1, scattering screening) greater than 100 µM. In addition, the IC50 in the data set with HepG2 cells turned out to be 2730 nM.
